Laboratory results: paper PMC6576746, “Rational discovery of dual-indication multi-target PDE/Kinase inhibitor for precision anti-cancer therapy using structural systems pharmacology” (PLoS Computational Biology, 2019)

How the values were obtained:
Assay in all cases: biochemical
Parameters in all cases: DiscoverX KinomeScan competition binding assay across human kinases; per cent of control at 10 and 100 uM
[1] = target: T1, RSK4(Kin.Dom.2-C-terminal) (Homo sapiens, UniProt Q9UK32); settings: competition binding, % of control
T1 construct: gene RPS6KA6; Kin.Dom.2-C-terminal
Summary of the method: (§1)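 Binding is expressed as %control, normalised between positive and negative control signals. The compound (levosimendan) was tested at 10 μM and 100 μM in the DiscoverX KinomeScan competition binding format against human kinases.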

BTK = BTK (Homo sapiens, UniProt Q06187); settings: competition binding, % of control; read-out: Percent Control (100 uM Levosimendan)
Summary of the method: as §1

EPHB1 = EPHB1 (Homo sapiens, UniProt P54762); settings: competition binding, % of control; read-out: Percent Control (100 uM Levosimendan)
Summary of the method: as §1

EGFR(L858R) = EGFR(L858R) (Homo sapiens, UniProt P00533, L858R); settings: competition binding, % of control; read-out: Percent Control (100 uM Levosimendan)
Summary of the method: as §1

CDC2L1 = target: T2, CDC2L1 (Homo sapiens, UniProt P21127); settings: competition binding, % of control; read-out: Percent Control (100 uM Levosimendan)
T2 construct: gene CDK11B
Summary of the method: as §1

DAPK1 = DAPK1 (Homo sapiens, UniProt P53355); settings: competition binding, % of control; read-out: Percent Control (100 uM Levosimendan)
Summary of the method: as §1

MST3 = target: T3, MST3 (Homo sapiens, UniProt Q9Y6E0); settings: competition binding, % of control; read-out: Percent Control (100 uM Levosimendan)
T3 construct: gene STK24
Summary of the method: as §1

HCK = HCK (Homo sapiens, UniProt P08631); settings: competition binding, % of control
Summary of the method: as §1

[2] = target: T4, ABL1(F317I)-nonphosphorylated (Homo sapiens, UniProt P00519, F317I); settings: competition binding, % of control; read-out: Percent Control (100 uM Levosimendan)
T4 construct: nonphosphorylated
Summary of the method: as §1

STK39 = STK39 (Homo sapiens, UniProt Q9UEW8); settings: competition binding, % of control; read-out: Percent Control (100 uM Levosimendan)
Summary of the method: as §1

PIK3CA = PIK3CA (Homo sapiens, UniProt P42336); settings: competition binding, % of control; read-out: Percent Control (100 uM Levosimendan)
Summary of the method: as §1

STK36 = STK36 (Homo sapiens, UniProt Q9NRP7); settings: competition binding, % of control
Summary of the method: as §1

PLK2 = PLK2 (Homo sapiens, UniProt Q9NYY3); settings: competition binding, % of control; read-out: Percent Control (100 uM Levosimendan)
Summary of the method: as §1

IKK-alpha = target: T5, IKK-alpha (Homo sapiens, UniProt O15111); settings: competition binding, % of control; read-out: Percent Control (100 uM Levosimendan)
T5 construct: gene CHUK
Summary of the method: as §1

HUNK = HUNK (Homo sapiens, UniProt P57058); settings: competition binding, % of control; read-out: Percent Control (100 uM Levosimendan)
Summary of the method: as §1

EPHB2 = EPHB2 (Homo sapiens, UniProt P29323); settings: competition binding, % of control; read-out: Percent Control (100 uM Levosimendan)
Summary of the method: as §1

CAMK2D = CAMK2D (Homo sapiens, UniProt Q13557); settings: competition binding, % of control; read-out: Percent Control (100 uM Levosimendan)
Summary of the method: as §1

NEK6 = NEK6 (Homo sapiens, UniProt Q9HC98); settings: competition binding, % of control; read-out: Percent Control (100 uM Levosimendan)
Summary of the method: as §1

MEK1 = target: T6, MEK1 (Homo sapiens, UniProt Q02750); settings: competition binding, % of control; read-out: Percent Control (100 uM Levosimendan)
T6 construct: gene MAP2K1
Summary of the method: as §1

[3] = read-out: Percent Control (10 uM Levosimendan)
[4] = read-out: Percent Control (100 uM Levosimendan)

Sequence of HCK (P08631 whole entry): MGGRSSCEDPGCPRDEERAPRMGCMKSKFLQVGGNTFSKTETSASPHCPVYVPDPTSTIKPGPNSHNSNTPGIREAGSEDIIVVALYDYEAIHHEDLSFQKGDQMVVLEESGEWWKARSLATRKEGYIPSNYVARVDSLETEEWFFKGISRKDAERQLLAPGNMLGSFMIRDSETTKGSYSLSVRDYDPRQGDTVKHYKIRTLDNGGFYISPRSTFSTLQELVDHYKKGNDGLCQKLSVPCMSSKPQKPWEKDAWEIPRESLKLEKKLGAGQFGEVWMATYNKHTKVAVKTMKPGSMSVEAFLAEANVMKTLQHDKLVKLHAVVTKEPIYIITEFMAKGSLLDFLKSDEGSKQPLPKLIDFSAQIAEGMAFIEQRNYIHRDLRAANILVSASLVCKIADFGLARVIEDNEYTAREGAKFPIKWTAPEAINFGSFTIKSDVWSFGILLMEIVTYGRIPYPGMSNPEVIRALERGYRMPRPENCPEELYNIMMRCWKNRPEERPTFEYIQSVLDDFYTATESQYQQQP
T1 sequence (Q9UK32 whole entry): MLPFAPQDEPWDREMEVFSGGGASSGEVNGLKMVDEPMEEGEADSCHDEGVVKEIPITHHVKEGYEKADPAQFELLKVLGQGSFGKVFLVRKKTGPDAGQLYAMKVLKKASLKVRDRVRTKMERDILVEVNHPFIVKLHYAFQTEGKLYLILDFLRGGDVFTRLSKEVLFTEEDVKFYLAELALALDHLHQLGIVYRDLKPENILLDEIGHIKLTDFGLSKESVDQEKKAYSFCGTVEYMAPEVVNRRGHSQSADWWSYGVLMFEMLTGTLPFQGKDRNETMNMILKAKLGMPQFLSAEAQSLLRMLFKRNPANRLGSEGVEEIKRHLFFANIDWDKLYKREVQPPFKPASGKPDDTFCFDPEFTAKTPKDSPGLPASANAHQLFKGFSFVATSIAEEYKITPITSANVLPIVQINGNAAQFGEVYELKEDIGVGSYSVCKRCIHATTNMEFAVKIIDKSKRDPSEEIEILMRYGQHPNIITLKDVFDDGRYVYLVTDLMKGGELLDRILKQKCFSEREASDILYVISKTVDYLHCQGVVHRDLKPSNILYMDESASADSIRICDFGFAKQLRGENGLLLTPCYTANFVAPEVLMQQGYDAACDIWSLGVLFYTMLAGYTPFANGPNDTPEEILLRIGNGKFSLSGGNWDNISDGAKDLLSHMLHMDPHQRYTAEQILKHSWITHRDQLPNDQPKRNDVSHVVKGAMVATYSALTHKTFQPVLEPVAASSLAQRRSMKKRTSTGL
Sequence of STK36 (Q9NRP7 whole entry): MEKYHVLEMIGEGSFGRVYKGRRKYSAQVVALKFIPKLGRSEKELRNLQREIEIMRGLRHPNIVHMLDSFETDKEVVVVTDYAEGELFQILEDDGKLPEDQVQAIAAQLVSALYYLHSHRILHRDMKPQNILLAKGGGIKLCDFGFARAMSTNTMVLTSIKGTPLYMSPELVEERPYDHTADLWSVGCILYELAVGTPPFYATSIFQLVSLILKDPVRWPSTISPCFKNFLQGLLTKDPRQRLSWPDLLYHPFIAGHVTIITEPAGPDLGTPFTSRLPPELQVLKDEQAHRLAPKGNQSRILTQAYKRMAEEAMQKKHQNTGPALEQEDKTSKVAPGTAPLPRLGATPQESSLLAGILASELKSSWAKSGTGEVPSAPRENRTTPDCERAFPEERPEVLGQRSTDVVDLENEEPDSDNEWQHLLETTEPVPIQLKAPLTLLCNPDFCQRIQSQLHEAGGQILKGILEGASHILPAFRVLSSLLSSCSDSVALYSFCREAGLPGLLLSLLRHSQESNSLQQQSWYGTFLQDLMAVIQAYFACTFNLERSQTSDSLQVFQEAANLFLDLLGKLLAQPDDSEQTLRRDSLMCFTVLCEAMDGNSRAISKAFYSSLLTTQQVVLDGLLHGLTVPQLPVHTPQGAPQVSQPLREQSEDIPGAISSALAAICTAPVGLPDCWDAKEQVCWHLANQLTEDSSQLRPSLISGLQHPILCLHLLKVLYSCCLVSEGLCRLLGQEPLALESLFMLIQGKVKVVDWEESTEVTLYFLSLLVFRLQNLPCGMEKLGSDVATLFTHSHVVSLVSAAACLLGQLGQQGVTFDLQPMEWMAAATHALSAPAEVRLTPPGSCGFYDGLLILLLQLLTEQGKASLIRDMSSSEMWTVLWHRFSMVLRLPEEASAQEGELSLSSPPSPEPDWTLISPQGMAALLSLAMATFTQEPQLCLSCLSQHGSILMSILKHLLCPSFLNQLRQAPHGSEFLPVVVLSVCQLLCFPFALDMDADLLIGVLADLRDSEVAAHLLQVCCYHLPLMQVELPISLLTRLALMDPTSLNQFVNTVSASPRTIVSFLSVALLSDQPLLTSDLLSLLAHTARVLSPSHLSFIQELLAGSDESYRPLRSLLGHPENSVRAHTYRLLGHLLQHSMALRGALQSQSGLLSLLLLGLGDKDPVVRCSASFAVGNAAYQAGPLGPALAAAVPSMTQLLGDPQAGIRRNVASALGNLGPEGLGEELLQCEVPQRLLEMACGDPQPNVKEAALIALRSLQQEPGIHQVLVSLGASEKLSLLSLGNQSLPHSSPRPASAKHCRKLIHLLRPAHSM
Sequence of DAPK1 (P53355 whole entry): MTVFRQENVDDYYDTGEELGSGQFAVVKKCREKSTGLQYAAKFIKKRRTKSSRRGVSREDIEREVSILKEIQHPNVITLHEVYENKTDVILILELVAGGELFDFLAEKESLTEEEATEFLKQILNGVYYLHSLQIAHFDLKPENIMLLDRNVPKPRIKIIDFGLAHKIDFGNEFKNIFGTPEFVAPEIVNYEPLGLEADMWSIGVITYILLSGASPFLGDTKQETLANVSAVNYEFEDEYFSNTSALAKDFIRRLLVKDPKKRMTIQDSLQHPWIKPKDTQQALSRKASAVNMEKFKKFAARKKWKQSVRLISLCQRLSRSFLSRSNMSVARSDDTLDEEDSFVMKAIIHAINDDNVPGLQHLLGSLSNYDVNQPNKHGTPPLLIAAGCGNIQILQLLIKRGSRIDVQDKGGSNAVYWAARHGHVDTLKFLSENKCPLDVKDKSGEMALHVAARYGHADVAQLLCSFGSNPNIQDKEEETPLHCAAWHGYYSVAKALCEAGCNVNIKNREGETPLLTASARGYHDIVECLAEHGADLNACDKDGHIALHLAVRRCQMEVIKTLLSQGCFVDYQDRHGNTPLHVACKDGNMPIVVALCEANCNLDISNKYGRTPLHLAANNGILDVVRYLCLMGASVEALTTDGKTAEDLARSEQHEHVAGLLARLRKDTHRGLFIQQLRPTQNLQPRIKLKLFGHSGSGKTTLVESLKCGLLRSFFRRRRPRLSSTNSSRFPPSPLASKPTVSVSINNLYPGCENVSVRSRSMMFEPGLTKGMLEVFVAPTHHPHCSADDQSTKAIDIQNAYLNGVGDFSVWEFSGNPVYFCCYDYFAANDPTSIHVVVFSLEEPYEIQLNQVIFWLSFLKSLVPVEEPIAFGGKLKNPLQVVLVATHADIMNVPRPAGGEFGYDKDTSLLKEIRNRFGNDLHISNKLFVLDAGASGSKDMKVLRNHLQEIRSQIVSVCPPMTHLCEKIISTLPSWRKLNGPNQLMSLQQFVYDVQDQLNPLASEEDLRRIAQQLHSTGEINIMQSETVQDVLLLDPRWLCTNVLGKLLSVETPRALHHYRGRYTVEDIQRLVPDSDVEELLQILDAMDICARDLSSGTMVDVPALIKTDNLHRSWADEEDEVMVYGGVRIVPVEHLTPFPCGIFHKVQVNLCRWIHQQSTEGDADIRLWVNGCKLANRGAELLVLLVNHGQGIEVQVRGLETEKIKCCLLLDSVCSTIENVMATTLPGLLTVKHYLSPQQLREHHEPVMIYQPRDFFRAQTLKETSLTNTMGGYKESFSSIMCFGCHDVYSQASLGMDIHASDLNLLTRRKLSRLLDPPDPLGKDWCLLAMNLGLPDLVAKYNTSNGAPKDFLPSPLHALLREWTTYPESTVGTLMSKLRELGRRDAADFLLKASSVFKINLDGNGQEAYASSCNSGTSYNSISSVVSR
Sequence of HUNK (P57058 whole entry): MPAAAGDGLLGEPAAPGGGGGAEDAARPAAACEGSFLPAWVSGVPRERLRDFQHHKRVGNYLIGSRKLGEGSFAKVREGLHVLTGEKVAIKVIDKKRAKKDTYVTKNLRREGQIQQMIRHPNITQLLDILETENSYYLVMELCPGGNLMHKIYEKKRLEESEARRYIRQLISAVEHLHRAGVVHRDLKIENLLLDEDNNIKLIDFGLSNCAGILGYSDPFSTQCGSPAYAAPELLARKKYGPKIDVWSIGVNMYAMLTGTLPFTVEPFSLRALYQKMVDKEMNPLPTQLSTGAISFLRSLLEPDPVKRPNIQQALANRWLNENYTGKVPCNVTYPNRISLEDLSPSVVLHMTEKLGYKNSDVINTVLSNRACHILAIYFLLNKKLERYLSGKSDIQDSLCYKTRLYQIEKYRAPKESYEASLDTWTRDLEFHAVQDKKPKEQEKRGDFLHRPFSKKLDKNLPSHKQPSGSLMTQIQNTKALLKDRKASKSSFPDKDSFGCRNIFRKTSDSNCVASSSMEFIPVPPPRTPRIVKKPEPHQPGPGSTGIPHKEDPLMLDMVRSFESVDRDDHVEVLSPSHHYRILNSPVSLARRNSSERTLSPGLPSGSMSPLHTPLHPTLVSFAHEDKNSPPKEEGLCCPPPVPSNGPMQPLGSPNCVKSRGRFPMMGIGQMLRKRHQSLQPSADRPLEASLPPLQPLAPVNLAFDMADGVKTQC
Sequence of NEK6 (Q9HC98 whole entry): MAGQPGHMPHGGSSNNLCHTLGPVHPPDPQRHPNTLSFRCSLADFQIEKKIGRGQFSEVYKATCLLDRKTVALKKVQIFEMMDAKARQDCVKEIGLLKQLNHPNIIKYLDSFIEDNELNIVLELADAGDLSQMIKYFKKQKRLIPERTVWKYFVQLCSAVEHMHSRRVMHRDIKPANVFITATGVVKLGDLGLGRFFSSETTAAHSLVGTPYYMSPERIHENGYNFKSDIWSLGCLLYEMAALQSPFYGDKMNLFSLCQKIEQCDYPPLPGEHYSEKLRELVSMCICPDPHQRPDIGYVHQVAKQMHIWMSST

C[C@@H]1CC(=O)NN=C1c1ccc(NN=C(C#N)C#N)cc1 [levosimendan]
remaining binding at 10 µM [1, 3]: 82% | remaining binding at 100 µM [1, 4]: 31% | remaining binding at 100 µM (BTK): 100% | remaining binding at 100 µM (EPHB1): 96% | remaining binding at 100 µM (EGFR(L858R)): 63% | remaining binding at 100 µM (CDC2L1): 100% | remaining binding at 100 µM (DAPK1): 88% | remaining binding at 100 µM (MST3): 96% | remaining binding at 10 µM (HCK; [3]): 98% | remaining binding at 100 µM (HCK; [4]): 24% | remaining binding at 100 µM [2]: 100% | remaining binding at 100 µM (STK39): 100% | remaining binding at 100 µM (PIK3CA): 96% | remaining binding at 10 µM (STK36; [3]): 98% | remaining binding at 100 µM (STK36; [4]): 50% | remaining binding at 100 µM (PLK2): 72% | remaining binding at 100 µM (IKK-alpha): 59% | remaining binding at 100 µM (HUNK): 100% | remaining binding at 100 µM (EPHB2): 77% | remaining binding at 100 µM (CAMK2D): 87% | remaining binding at 100 µM (NEK6): 71% | remaining binding at 100 µM (MEK1): 85%
